ChEMBL document CHEMBL1201861, “Genomics of Drug Sensitity in Cancer screening data, Wellcome Trust Sanger Institute”

Tests used:
Experiment in all cases: cells
[1] = test system: Ca9-22; format: functional, cell-based, Homo sapiens; settings: Homo sapiens, Ca9-22;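 note: growth inhibition of Ca9-22 cells, read out with a cell viability assay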
Description: SANGER: Inhibition of human Ca9-22 cell growth in a cell viability assay.

[2] = test system: GT3TKB; format: functional, cell-based, Homo sapiens; settings: Homo sapiens, GT3TKB;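 note: growth inhibition of the cell line, read out with a cell viability assay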
Description: SANGER: Inhibition of human GT3TKB cell growth in a cell viability assay.

[3] = test system: TE-9; format: functional, cell-based, Homo sapiens; settings: Homo sapiens, TE-9;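 note: cell growth inhibition, measured with a cell viability readout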
Description: SANGER: Inhibition of human TE-9 cell growth in a cell viability assay.

[4] = test system: HT; format: functional, cell-based; settings: Homo sapiens
Description: SANGER: Inhibition of human HT cell growth in a cell viability assay.

[5] = test system: NOS-1; format: functional, cell-based, Homo sapiens; settings: Homo sapiens, NOS-1;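 note: growth inhibition of the human NOS-1 cell line, read out with a cell viability assay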
Description: SANGER: Inhibition of human NOS-1 cell growth in a cell viability assay.

[6] = test system: NCI-H747; format: functional, cell-based; settings: Homo sapiens;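 note: growth inhibition of human NCI-H747 cells, read out by a cell viability assay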
Description: SANGER: Inhibition of human NCI-H747 cell growth in a cell viability assay.

[7] = test system: MDA-MB-415; format: functional, cell-based; settings: Homo sapiens
[8] = test system: EM-2; format: functional, cell-based; settings: Homo sapiens;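 note: growth inhibition of EM-2 cells, read out with a cell viability assay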
Description: SANGER: Inhibition of human EM-2 cell growth in a cell viability assay.

[9] = test system: A-375; format: functional, cell-based, Homo sapiens; settings: Homo sapiens, A-375;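 note: growth inhibition of A375 cells, read out with a cell viability assay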
Description: SANGER: Inhibition of human A375 cell growth in a cell viability assay.

[10] = test system: PA-1; format: functional, cell-based, Homo sapiens; settings: Homo sapiens, PA-1;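 note: IC50 for suppression of PA-1 cell proliferation, determined with a cell viability read-out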
Description: SANGER: Inhibition of human PA-1 cell growth in a cell viability assay.

[11] = test system: J82; format: functional, cell-based; settings: Homo sapiens;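 note: growth inhibition of J82 cells, read out with a cell viability assay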
Description: SANGER: Inhibition of human J82 cell growth in a cell viability assay.

[12] = test system: NCI-H2228; format: functional, cell-based, Homo sapiens; settings: Homo sapiens, NCI-H2228;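 note: growth inhibition of human NCI-H2228 cells, read out by a cell viability assay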
Description: SANGER: Inhibition of human NCI-H2228 cell growth in a cell viability assay.

[13] = test system: TE-12; format: functional, cell-based; settings: Homo sapiens;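 note: growth inhibition of TE-12 cells, read out by a cell viability assay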
Description: SANGER: Inhibition of human TE-12 cell growth in a cell viability assay.

[14] = test system: KYSE-520 cell line; format: functional, cell-based, Homo sapiens; settings: Homo sapiens, KYSE-520;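 note: growth inhibition of human KYSE-520 cells, read out with a viability assay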
Description: SANGER: Inhibition of human KYSE-520 cell growth in a cell viability assay.

[15] = test system: LS-513; format: functional, cell-based, Homo sapiens; settings: Homo sapiens, LS-513
Description: SANGER: Inhibition of human LS-513 cell growth in a cell viability assay.

[16] = test system: HH; format: functional, cell-based; settings: Homo sapiens
Description: SANGER: Inhibition of human HH cell growth in a cell viability assay.

[17] = test system: FaDu; format: functional, cell-based, Homo sapiens; settings: Homo sapiens, FaDu;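 note: cell viability readout of growth inhibition in FaDu cells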
Description: SANGER: Inhibition of human FADU cell growth in a cell viability assay.

[18] = test system: NCI-H650; format: functional, cell-based, Homo sapiens; settings: Homo sapiens, NCI-H650;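 note: growth inhibition of NCI-H650 cells, read out by a viability assay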
Description: SANGER: Inhibition of human NCI-H650 cell growth in a cell viability assay.

[19] = test system: A-431; format: functional, cell-based, Homo sapiens; settings: Homo sapiens, A-431;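 note: growth inhibition of A-431 cells, determined with a cell viability read-out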
Description: SANGER: Inhibition of human A431 cell growth in a cell viability assay.

[20] = test system: LCLC-97TM1; format: functional, cell-based, Homo sapiens; settings: Homo sapiens, LCLC-97TM1;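 note: cell viability assay measuring growth inhibition of human LCLC-97TM1 cells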
Description: SANGER: Inhibition of human LCLC-97TM1 cell growth in a cell viability assay.

[21] = test system: COLO-678; format: functional, cell-based, Homo sapiens; settings: Homo sapiens, COLO-678
Description: SANGER: Inhibition of human COLO-678 cell growth in a cell viability assay.

[22] = test system: NCI-H2126; format: functional, cell-based, Homo sapiens; settings: Homo sapiens, NCI-H2126;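 note: growth inhibition of the cancer cell line, determined with a cell viability readout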
Description: SANGER: Inhibition of human NCI-H2126 cell growth in a cell viability assay.

[23] = test system: NCI-H720; format: functional, cell-based; settings: Homo sapiens;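 note: growth inhibition of human NCI-H720 cells determined by a cell viability assay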
Description: SANGER: Inhibition of human NCI-H720 cell growth in a cell viability assay.

[24] = test system: CW-2; format: functional, cell-based, Homo sapiens; settings: Homo sapiens, CW-2;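 note: growth inhibition of CW-2 cells, read out by a cell viability assay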
Description: SANGER: Inhibition of human CW-2 cell growth in a cell viability assay.

[25] = test system: Ca-Ski; format: functional, cell-based; settings: Homo sapiens;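 note: cell viability assay measuring inhibition of Ca-Ski cell growth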
Description: SANGER: Inhibition of human Ca-Ski cell growth in a cell viability assay.

[26] = test system: PC-3; format: functional, cell-based, Homo sapiens; settings: Homo sapiens, PC-3;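 note: cell viability assay measuring growth inhibition of PC-3 cells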
Description: SANGER: Inhibition of human PC-3 cell growth in a cell viability assay.

[27] = test system: LS-411N; format: functional, cell-based, Homo sapiens; settings: Homo sapiens, LS-411N
[28] = test system: SK-HEP1; format: functional, cell-based, Homo sapiens, SK-HEP-1; settings: Homo sapiens, SK-HEP1;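 note: cell viability readout used to quantify reduction in proliferation of human SK-HEP-1 cells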
Description: SANGER: Inhibition of human SK-HEP-1 cell growth in a cell viability assay.

[29] = test system: Detroit 562; format: functional, cell-based, Homo sapiens; settings: Homo sapiens, Detroit 562;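 note: growth inhibition of human Detroit 562 cells, read out by a cell viability assay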
Description: SANGER: Inhibition of human Detroit562 cell growth in a cell viability assay.

[30] = test system: KU-19-19; format: functional, cell-based, Homo sapiens; settings: Homo sapiens, KU-19-19
Description: SANGER: Inhibition of human KU-19-19 cell growth in a cell viability assay.

[31] = test system: PSN1; format: functional, cell-based, Homo sapiens; settings: Homo sapiens, PSN1;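 note: suppression of growth of human PSN1 cells, read out by a cell viability assay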
Description: SANGER: Inhibition of human PSN1 cell growth in a cell viability assay.

[32] = test system: RERF-LC-MS; format: functional, cell-based, Homo sapiens; settings: Homo sapiens, RERF-LC-MS;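 note: growth inhibition of human RERF-LC-MS cells, read out by a cell viability assay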
Description: SANGER: Inhibition of human RERF-LC-MS cell growth in a cell viability assay.

[33] = test system: HPAF-II; format: functional, cell-based, Homo sapiens; settings: Homo sapiens, HPAF-II;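 note: growth inhibition of HPAF-II cells, read out with a cell viability assay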
Description: SANGER: Inhibition of human HPAF-II cell growth in a cell viability assay.

[34] = test system: MPP-89; format: functional, cell-based, Homo sapiens; settings: Homo sapiens, MPP-89;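 note: growth inhibition of human MPP-89 cells, read out with a cell viability assay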
Description: SANGER: Inhibition of human MPP-89 cell growth in a cell viability assay.

[35] = test system: HEC-1; format: functional, cell-based, Homo sapiens; settings: Homo sapiens, HEC-1;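 note: growth inhibition of the cell line, read out with a cell viability assay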
Description: SANGER: Inhibition of human HEC-1 cell growth in a cell viability assay.

[36] = test system: COLO-824; format: functional, cell-based, Homo sapiens; settings: Homo sapiens, COLO-824
Description: SANGER: Inhibition of human COLO-824 cell growth in a cell viability assay.

[37] = test system: SW837; format: functional, cell-based, Homo sapiens; settings: Homo sapiens, SW837;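 note: growth inhibition of SW837 cells, determined with a cell viability assay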
Description: SANGER: Inhibition of human SW837 cell growth in a cell viability assay.

[38] = test system: HT-3; format: functional, cell-based, Homo sapiens; settings: Homo sapiens, HT-3;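 note: growth inhibition measured with a cell viability readout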
Description: SANGER: Inhibition of human HT-3 cell growth in a cell viability assay.

[39] = test system: NCI-H2087; format: functional, cell-based, Homo sapiens; settings: Homo sapiens, NCI-H2087;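 note: growth inhibition determined with a cell viability readout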
Description: SANGER: Inhibition of human NCI-H2087 cell growth in a cell viability assay.

[40] = test system: LB2518-MEL; format: functional, cell-based, Homo sapiens; settings: Homo sapiens, LB2518-MEL;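 note: growth inhibition of human LB2518-MEL cells, measured with a cell viability assay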
Description: SANGER: Inhibition of human LB2518-MEL cell growth in a cell viability assay.

[41] = test system: NEC8; format: functional, cell-based, Homo sapiens; settings: Homo sapiens, NEC8;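 note: growth inhibition of human NEC8 cells, read out by a cell viability assay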
Description: SANGER: Inhibition of human NEC8 cell growth in a cell viability assay.

[42] = test system: LU-139; format: functional, cell-based; settings: Homo sapiens
Description: SANGER: Inhibition of human LU-139 cell growth in a cell viability assay.

[43] = test system: AM-38; format: functional, cell-based, Homo sapiens; settings: Homo sapiens, AM-38;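 note: growth inhibition of AM-38 cells of human origin, read out by a cell viability assay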
Description: SANGER: Inhibition of human AM-38 cell growth in a cell viability assay.

[44] = test system: A3-KAW; format: functional, cell-based; settings: Homo sapiens;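 note: growth inhibition of human A3-KAW cells, read out with a cell viability assay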
Description: SANGER: Inhibition of human A3-KAW cell growth in a cell viability assay.

[45] = test system: LAMA-84; format: functional, cell-based; settings: Homo sapiens;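 note: growth inhibition of LAMA-84 cells, read out with a cell viability assay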
Description: SANGER: Inhibition of human LAMA-84 cell growth in a cell viability assay.

[46] = test system: SF-295; format: functional, cell-based, Homo sapiens; settings: Homo sapiens, SF-295; read-out: IC50;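 note: growth inhibition of SF-295 cells, read out with a cell viability assay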
Description: SANGER: Inhibition of human SF295 cell growth in a cell viability assay.

[47] = test system: P12-Ichikawa; format: functional, cell-based; settings: Homo sapiens
[48] = test system: AGS; format: functional, cell-based, Homo sapiens; settings: Homo sapiens, AGS;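 note: growth inhibition of AGS cells, determined with a cell viability assay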
Description: SANGER: Inhibition of human AGS cell growth in a cell viability assay.

[49] = test system: Capan-2; format: functional, cell-based, Homo sapiens; settings: Homo sapiens, Capan-2;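 note: Capan-2 cell growth inhibition, read out with a viability assay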
Description: SANGER: Inhibition of human Capan-2 cell growth in a cell viability assay.

[50] = test system: EW-13; format: functional, cell-based; settings: Homo sapiens;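 note: growth inhibition of EW-13 cells, read out with a cell viability assay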
Description: SANGER: Inhibition of human EW-13 cell growth in a cell viability assay.

[51] = test system: CAL-85-1; format: functional, cell-based; settings: Homo sapiens;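 note: growth inhibition of human CAL-85-1 cells, read out with a cell viability assay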
Description: SANGER: Inhibition of human CAL-85-1 cell growth in a cell viability assay.

[52] = test system: ONS-76; format: functional, cell-based, Homo sapiens; settings: Homo sapiens, ONS-76;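 note: growth inhibition of human ONS-76 cells, read out with a cell viability assay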
Description: SANGER: Inhibition of human ONS-76 cell growth in a cell viability assay.

[53] = test system: HEL; format: functional, cell-based, Homo sapiens; settings: Homo sapiens, HEL;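 note: growth inhibition of HEL cells, read out with a cell viability assay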
Description: SANGER: Inhibition of human HEL cell growth in a cell viability assay.

Work on `C=CCNC1=C2C[C@@H](C)C[C@H](OC)[C@H](O)[C@@H](C)/C=C(\C)[C@H](OC(N)=O)[C@@H](OC)/C=C\C=C(/C)C(=O)NC(=CC1=O)C2=O` [TANESPIMYCIN] yielded an IC50 [1] greater than 1000 nM, an IC50 [2] of 59.4 nM and an IC50 [3] of 218 nM. It also gave an IC50 [4] greater than 1000 nM, an IC50 [5] of 975 nM and an IC50 [6] of 242 nM. The IC50 [7] was 708 nM, the IC50 [8] was greater than 1000 nM and the IC50 [9] was 128 nM. The IC50 [10] was 954 nM, the IC50 [11] was 273 nM and the IC50 [12] was 354 nM. The IC50 [13] was greater than 1000 nM, the IC50 [14] was 182 nM and the IC50 [15] was 240 nM. It also gave an IC50 [16] greater than 1000 nM, an IC50 [17] of 2.09 nM and an IC50 [18] of 177 nM. The IC50 [19] was 82.1 nM, the IC50 [20] was 87.3 nM and the IC50 [21] was 240 nM. The IC50 [22] was 568 nM, the IC50 [23] was 25.5 nM and the IC50 [24] was greater than 1000 nM. The IC50 [25] was 267 nM, the IC50 [26] was 515 nM and the IC50 [27] was 465 nM. For the same compound, the IC50 [28] was greater than 1000 nM, the IC50 [29] was 42.4 nM and the IC50 [30] was greater than 1000 nM. The IC50 [31] was 46 nM, the IC50 [32] was 746 nM and the IC50 [33] was 213 nM. For the same compound, the IC50 [34] was 141 nM, the IC50 [35] was 65.9 nM and the IC50 [36] was 173 nM. It also gave an IC50 [37] greater than 1000 nM, an IC50 [38] of 482 nM and an IC50 [39] of 174 nM. It also gave an IC50 [40] of 258 nM, an IC50 [41] greater than 1000 nM and an IC50 [42] greater than 1000 nM. The IC50 [43] was 208 nM, the IC50 [44] was 342 nM and the IC50 [45] was greater than 1000 nM. The IC50 [46] was 64.5 nM, the IC50 [47] was greater than 1000 nM and the IC50 [48] was 19.4 nM. The IC50 [49] was 193 nM, the IC50 [50] was greater than 1000 nM and the IC50 [51] was greater than 1000 nM. It also gave an IC50 [52] greater than 1000 nM and an IC50 [53] greater than 1000 nM.
In the case of `Cn1cncc1[C@@](N)(c1ccc(Cl)cc1)c1ccc2c(c1)c(-c1cccc(Cl)c1)cc(=O)n2C` [TIPIFARNIB], the IC50 [1] is reported as 2940 nM, the IC50 [2] is reported as 3010 nM and the IC50 [3] is reported as greater than 16000 nM. The IC50 [4] was 8290 nM, the IC50 [5] was 2130 nM and the IC50 [6] was 2660 nM. It also gave an IC50 [7] of 14200 nM, an IC50 [8] greater than 16000 nM and an IC50 [9] of 616 nM. The IC50 [10] was 1340 nM, the IC50 [11] was 4180 nM and the IC50 [12] was 4980 nM. The IC50 [13] was 2820 nM, the IC50 [14] was greater than 16000 nM and the IC50 [15] was greater than 16000 nM. It also gave an IC50 [16] of 191 nM, an IC50 [17] of 8380 nM and an IC50 [18] of 773 nM. For the same compound, the IC50 [19] was 655 nM, the IC50 [20] was 2300 nM and the IC50 [21] was greater than 16000 nM. The IC50 [22] was greater than 16000 nM, the IC50 [23] was greater than 16000 nM and the IC50 [24] was greater than 16000 nM. For the same compound, the IC50 [25] was 9170 nM, the IC50 [26] was 11300 nM and the IC50 [27] was 1100 nM. The IC50 [28] was 714 nM, the IC50 [29] was 4070 nM and the IC50 [30] was greater than 16000 nM. It also gave an IC50 [31] of 1110 nM, an IC50 [32] greater than 16000 nM and an IC50 [33] of 7570 nM. It also gave an IC50 [34] greater than 16000 nM, an IC50 [35] of 7150 nM and an IC50 [36] greater than 16000 nM. For the same compound, the IC50 [37] was 9890 nM, the IC50 [38] was greater than 16000 nM and the IC50 [39] was 2280 nM. It also gave an IC50 [40] of 2100 nM, an IC50 [41] greater than 16000 nM and an IC50 [42] greater than 16000 nM. The IC50 [43] was greater than 16000 nM, the IC50 [44] was 901 nM and the IC50 [45] was 6420 nM. The IC50 [46] was 2160 nM, the IC50 [47] was 10400 nM and the IC50 [48] was 4530 nM. For the same compound, the IC50 [49] was 10600 nM, the IC50 [50] was 6480 nM and the IC50 [51] was 1250 nM. It also gave an IC50 [52] of 1470 nM and an IC50 [53] of 394 nM.
